From patent US12454529B2, “Piperazine cyclic ureas” (SIRONAX LTD., priority 2020, dated 2025)
pEC50: −log10 of the molar value.

System: HT-29 cells
Test: HT-29 cell necrosis/necroptosis inhibition (TNF-α + SMAC mimetic + zVAD-FMK; CellTiter-Glo cell viability)
Format: cell-based
Details: Homo sapiens, HT-29, 20 h, read-out: EC50 (Cell activity; Necrosis/Necroptosis Inhibitory Activity, Compounds 1-142)
Description: Compounds 1-319 (denoted as Compound Nos. 1 through 319 in Table 3 and 4) of the disclosure were tested for binding and cellular RIP1 inhibitory activity following the experimental procedures described below.
• Cell line: HT-29 (ATCC® HTB-38™) • Culture medium: McCOY's 5A, Gibco, Cat No. 16600-082 • FBS, Gibco, Cat No. 10099-141C • Trypsin: Gibco, Cat No. 25200-056 • DMSO: Sigma, Cat No. 67-68-5, 1L • Assay plate: Corning #3903 • Compound dilution plate: Corning #3357 • Inducers: TNFα, GenScript, Cat No. Z01001-50, • SmacM, Cat. No., HY-15989, MedChemExpress (MCE) • Z_VAD FMK, TargetMol, T6013 • Cell Titer-Glo® Luminescent Cell Viability Assay Kit: Promega, Cat No. G7573 • EnVision: PerkinElmer, 2105-0010 Methods Cell Seeding
1. HT-29 cells were checked every day to make sure that they were healthy and growing as expected. They were subjected to sub-culturing when they were approximately 80% confluent.
2. The culture medium, McCOY's 5A medium (Gibco, Cat No. 16600-082) with 10% fetal bovine serum or FBS (Gibco, Cat No. 10099-141C), was pre-warmed in a 37° C. water bath for at least 30 min.
3. When the cells had reached a desired level of confluency of 80% in a T75 flask, the medium was aspirated, and the cells were washed with warm phosphate buffered saline or PBS two times.
4. 2-3 ml fresh warm trypsin (Gibco, Cat No. 25200-056) solution was added to the washed cells. The flask with the cells was transferred to a 37° C. incubator.
5. After 5 minutes, the side of the flask was tapped, and the flask was examined under a microscope for detachment of the cells to the flask. If necessary, the cells were kept in the incubator for an additional 5-10 minutes, with occasional tapping, until lifting was complete.
6. The trypsin reaction was neutralized by transferring 6-9 ml cell culture medium to sterile 15 ml conical tubes, and by centrifuging the cell culture at 300×g for 7 minutes to pellet the cells (supernatant decanted).
7. The cells were resuspended in fresh cell culture medium and the cell counting was performed using a hemocytometer.
8. 100 μl of the resuspended cell culture medium containing ˜5,000 cells were transferred into each well of the sterile 96-well cell culture plate (Corning 3903) and cultured overnight at 37° C. with 5% CO2.
Compound Titration and Treatment
1. All test compounds were dissolved in DMSO (Dimethyl sulfoxide) to create a 20 mM stock.
2. 3 μl of each compound 20 mM stock was mixed with 27 μl DMSO, and the compound solution was further diluted at a titration ratio of 1:3 (20 μl compound solution+40 μl DMSO) till the 10 points end.
3. All culture medium was removed from assay plates filled with HT-29 cell cultures. The cells were then washed with 1 PBS, and resuspended in fresh, FBS-free McCOY's 5A medium containing a cocktail of TNF-α (10 ng/ml), a SMAC mimetic compound (6 μM) and Z-VAD-fluoromethylketone or zVAD-FMK (10 μM) to stimulate the HT-29 cells to increase RIP1 kinase levels and necroptosis.
4. 0.5 μL of the diluted compound solution was added to the corresponding 96-well assay plates.
5. The assay plates were incubated for 20 hours at 37° C. with 5% CO2.
1. The CellTiter-Glo® Luminescent Cell Viability Assay was employed to detect the ATP levels of viable HT-29 cells.
2. The CellTiter-Glo® buffer and the lyophilized substrate were equilibrated to room temperature prior to use.
3. The CellTiter-Glo® substrate was resuspended with CellTiter-Glo® buffer, then mixed by gently vortexing to obtain a homogeneous solution.
4. 20 μl the enzyme/substrate mixture was transferred by multi-channel pipetting into 96-well assay plates.
5. The assay plates were placed on an orbital shaker and the contents were shaken for 3 minutes to induce cell lysis.
6. The assay plates were incubated at room temperature for 10 minutes to stabilize the luminescent signal.
7. The luminescence signals were read and recorded with EnVision.
8. The geometric mean EC50 values were calculated from 10 points response dose with duplicates. In

Row | Compound | pEC50
1 | Cc1nn(C[C@H]2CO2)c(C)c1-c1nc(N2CCN(C(=O)N3N=CC[C@H]3c3cc(F)cc(C#N)c3)CC2)ncc1F [Compound 134, 3-((S)-1-(4-(4-(3,5-dimethyl-1-(((S)-oxiran-2-yl)methyl)-1H-pyrazol-4-yl)-5-fluoropyrimidin-2-yl)piperazine-1-carbonyl)-4,5-dihydro-1H-pyrazol-5-yl)-5-fluorobenzonitrile] | 7.00 to 10.00

Same assay, conditions: Homo sapiens; HT-29 cells, TNF-α 10 ng/ml + SMAC mimetic 6 μM + zVAD-FMK 10 μM, 20 hours; geometric mean, 10 points in duplicate; read-out: EC50 (Cell activity; Necrosis/Necroptosis Inhibitory Activity, Compounds 1-142)

Row | Compound | pEC50
2 | Cc1cnn(C)c1-c1cc(N2CCN(C(=O)N3N=CC[C@H]3c3cc(F)cc(F)c3)CC2)ncc1F [Compound 114, (S)-(5-(3,5-difluorophenyl)-4,5-dihydro-1H-pyrazol-1-yl)(4-(4-(1,4-dimethyl-1H-pyrazol-5-yl)-5-fluoropyridin-2-yl)piperazin-1-yl)methanone] | 7.00 to 10.00
3 | Cc1nn(C)c(C)c1-c1nc(N2CCN(C(=O)N3N=CC[C@H]3c3cc(F)cc(F)c3)CC2)ncc1F [Compound 58, (S)-(5-(3,5-difluorophenyl)-4,5-dihydro-1H-pyrazol-1-yl)(4-(5-fluoro-4-(1,3,5-trimethyl-1H-pyrazol-4-yl)pyrimidin-2-yl)piperazin-1-yl)methanone] | 7.00 to 10.00
4 | COc1cc(-c2nc(N3CCN(C(=O)N4N=CC[C@H]4c4cc(F)cc(F)c4)CC3)ncc2F)nc(OC)n1 [Compound 19, (S)-(5-(3,5-difluorophenyl)-4,5-dihydro-1H-pyrazol-1-yl)(4-(5-fluoro-2′,6′-dimethoxy-[4,4′-bipyrimidin]-2-yl)piperazin-1-yl)methanone] | 7.00 to 10.00
5 | O=C(N1CCN(c2ncc(F)c(-c3ccc(O)nc3)n2)CC1)N1N=CC[C@H]1c1cc(F)cc(F)c1 [Compound 25, (S)-(5-(3,5-difluorophenyl)-4,5-dihydro-1H-pyrazol-1-yl)(4-(5-fluoro-4-(6-hydroxypyridin-3-yl)pyrimidin-2-yl)piperazin-1-yl)methanone] | 7.00 to 10.00
6 | O=C(N1CCN(c2ncc(F)c(-c3cnn(CCO)c3)n2)CC1)N1N=CC[C@H]1c1cc(F)cc(F)c1 [Compound 60, (S)-(5-(3,5-difluorophenyl)-4,5-dihydro-1H-pyrazol-1-yl)(4-(5-fluoro-4-(1-(2-hydroxyethyl)-1H-pyrazol-4-yl)pyrimidin-2-yl)piperazin-1-yl)methanone] | 7.00 to 10.00
7 | NC(=O)c1cnn(-c2nc(N3CCN(C(=O)N4N=CC[C@H]4c4cc(F)cc(F)c4)CC3)ncc2F)c1 [Compound 101, (5)-1-(2-(4-(5-(3,5-difluorophenyl)-4,5-dihydro-1H-pyrazole-1-carbonyl)piperazin-1-yl)-5-fluoropyrimidin-4-yl)-1H-pyrazole-4-carboxamide] | 7.00 to 10.00

Same assay, conditions: Homo sapiens; HT-29 cells, TNF-α 10 ng/ml + SMAC mimetic 6 μM + zVAD-FMK 10 μM, 20 hours; geometric mean, 10 points in duplicate; read-out: EC50 (Cell activity; Necrosis/Necroptosis Inhibitory Activity, Compounds 143-323)

Row | Compound | pEC50
8 | Cc1nc(C(F)(F)F)nn1-c1nc(N2CCN(C(=O)N3N=CC[C@H]3c3cc(F)cc(C#N)c3)CC2)ncc1F [Compound 207, (S)-3-fluoro-5-(1-(4-(5-fluoro-4-(5-methyl-3-(trifluoromethyl)-1H-1,2,4-triazol-1-yl)pyrimidin-2-yl)piperazine-1-carbonyl)-4,5-dihydro-1H-pyrazol-5-yl)benzonitrile] | 7.00 to 10.00
9 | Cc1cnc(C2CC=NN2C(=O)N2CCN(c3nc(-c4c(C)cnn4C)ncc3F)CC2)s1 (stereo not shown) [Compound 145, (4-(2-(1,4-dimethyl-1H-pyrazol-5-yl)-5-fluoropyrimidin-4-yl)piperazin-1-yl)(5-(5-methylthiazol-2-yl)-4,5-dihydro-1H-pyrazol-1-yl)methanone] | 7.00 to 10.00
10 | Cc1cnn(C)c1-c1ncc(F)c(N2CCN(C(=O)N3N=CC[C@H]3c3cc(F)cc(F)c3)CC2)n1 [Compound 301, (S)-(5-(3,5-difluorophenyl)-4,5-dihydro-1H-pyrazol-1-yl)(4-(2-(1,4-dimethyl-1H-pyrazol-5-yl)-5-fluoropyrimidin-4-yl)piperazin-1-yl)methanone] | 7.00 to 10.00
11 | Cc1cnn(C)c1-c1ncc(F)c(N2CCN(C(=O)N3N=CCC3c3cscn3)CC2)n1 (stereo not shown) [Compound 160, (4-(2-(1,4-dimethyl-1H-pyrazol-5-yl)-5-fluoropyrimidin-4-yl)piperazin-1-yl)(5-(thiazol-4-yl)-4,5-dihydro-1H-pyrazol-1-yl)methanone] | 7.00 to 10.00
12 | Cc1ncc(C2CC=NN2C(=O)N2CCN(c3nc(-c4c(C)cnn4C)ncc3F)CC2)s1 (stereo not shown) [Compound 162, (4-(2-(1,4-dimethyl-1H-pyrazol-5-yl)-5-fluoropyrimidin-4-yl)piperazin-1-yl)(5-(2-methylthiazol-5-yl)-4,5-dihydro-1H-pyrazol-1-yl)methanone] | 7.00 to 10.00
13 | Cc1cnn(C)c1-c1ccc(F)c(N2CCN(C(=O)N3N=CCC3c3cccnc3)CC2)n1 (stereo not shown) [Compound 295, (4-(6-(1,4-dimethyl-1H-pyrazol-5-yl)-3-fluoropyridin-2-yl)piperazin-1-yl)(5-(pyridin-3-yl)-4,5-dihydro-1H-pyrazol-1-yl)methanone] | 7.00 to 10.00
14 | Cc1cnn(C)c1-c1nc(N2CCN(C(=O)N3N=CC[C@H]3c3cc(F)cc(F)c3)CC2)sc1CO [Compound 267, (S)-(5-(3,5-difluorophenyl)-4,5-dihydro-1H-pyrazol-1-yl)(4-(4-(1,4-dimethyl-1H-pyrazol-5-yl)-5-(hydroxymethyl)thiazol-2-yl)piperazin-1-yl)methanone] | 5.00 to 6.00
15 | Cc1cnc([C@@H]2CC=NN2C(=O)N2CCN(c3ncc(F)c(-n4nc(C#N)nc4C)n3)CC2)s1 [Compound 319, (S)-1-(5-fluoro-2-(4-(5-(5-methylthiazol-2-yl)-4,5-dihydro-1H-pyrazole-1-carbonyl)piperazin-1-yl)pyrimidin-4-yl)-5-methyl-1H-1,2,4-triazole-3-carbonitrile] | 7.00 to 10.00
16 | Cc1nn(-c2cc(N3CCN(C(=O)N4N=CC[C@H]4c4cc(F)cc(C#N)c4)CC3)ncn2)c(C)c1Cl [Compound 289, (S)-3-(1-(4-(6-(4-chloro-3,5-dimethyl-1H-pyrazol-1-yl)pyrimidin-4-yl)piperazine-1-carbonyl)-4,5-dihydro-1H-pyrazol-5-yl)-5-fluorobenzonitrile] | 7.00 to 10.00
17 | Cc1nc(C2CC=NN2C(=O)N2CCN(c3ncc(F)c(-c4nnc(C)s4)n3)CC2)co1 (stereo not shown) [Compound 209, (4-(5-fluoro-4-(5-methyl-1,3,4-thiadiazol-2-yl)pyrimidin-2-yl)piperazin-1-yl)(5-(2-methyloxazol-4-yl)-4,5-dihydro-1H-pyrazol-1-yl)methanone] | 6.00 to 7.00
18 | Cc1nn(-c2cc(N3CCN(C(=O)N4N=CC[C@H]4c4cc(F)cc(C#N)c4)CC3)ncn2)c(C)c1C#N [Compound 279, (S)-1-(6-(4-(5-(3-cyano-5-fluorophenyl)-4,5-dihydro-1H-pyrazole-1-carbonyl)piperazin-1-yl)pyrimidin-4-yl)-3,5-dimethyl-1H-pyrazole-4-carbonitrile] | 7.00 to 10.00
19 | Cn1ncnc1-c1ccc(F)c(N2CCN(C(=O)N3N=CC[C@H]3c3cc(F)cc(C#N)c3)CC2)n1 [Compound 176, (S)-3-fluoro-5-(1-(4-(3-fluoro-6-(1-methyl-1H-1,2,4-triazol-5-yl)pyridin-2-yl)piperazine-1-carbonyl)-4,5-dihydro-1H-pyrazol-5-yl)benzonitrile] | 7.00 to 10.00
